Literature values in patent US9272137B2, “Transdermal methods and systems for the delivery of anti-migraine compounds” (Teva Pharmaceuticals International GmbH, priority 2006, dated 2016).

For `CNS(=O)(=O)Cc1ccc2[nH]cc(CCN(C)C)c2c1` [Sumatriptan], the serum elimination half-life (in vivo) is listed as 2 h and the “time within which most of the active drug is eliminated” value (majority of patients) is listed as 4 to 6 h.
